Results reported in patent US9738684B2, “N-terminally modified linear and branched polyamine conjugated peptidomimetics as antimicrobials agents” (COUNCIL OF SCIENTIFIC & INDUSTRIAL RESEARCH, priority 2015, dated 2017).
≈ marks a conversion by molar mass, not a printed value.

Experiments:
[1] = test system: Escherichia coli (ATCC 11775); experiment: MIC, serial broth dilution; assay type: cell-based; parameters: MIC E. coli. (ATCC 11775): unit not given here; details: MHB, 18 h, 37° C.
Experimental: (§1) The peptidomimetics designed in present invention were evaluated as antibacterial therapeutics against a broad range of bacterial strains by broth microdilution method. The antibacterial activity of the peptidomimetics was reported in terms of the minimum inhibitory concentrations (MIC).
(§2) Following bacterial strains were used in this study: S. aureus (ATCC 29213), methicillin resistant S. aureus (ATCC 33591), Staphylococcus epidermidis (ATCC 12228), methicillin resistant Staphylococcus epidermidis(ATCC 51625), Enterococcus faecalis (ATCC 7080), Escherichia coli (ATCC 11775), and Acinetobacter baumannii (ATCC 19606). Antibacterial activity was evaluated using a modified serial broth dilution method in accordance with Clinical Laboratory Standard Institute guidelines [Methods for dilution antimicrobial susceptibility tests for bacteria that grow aerobically-7th ed. Approved standard M7-A7. Clinical and Laboratory Standards Institute, Wayne, Pa., Biochim. Biophys. Acta 1798:1864-1875, 2010.]. Briefly, the inoculums were prepared from mid-log phase bacterial cultures. Peptidomimetics were incubated with bacterial suspension in Muller Hinton broth media (10^5 CFU/mL) in 96 well microtitre plate. The plates were incubated overnight with agitation (200 rpm) at 37° C. After 18 h, absorbance was measured at 630 nm. Cultures without test peptidomimetics were used as positive control. Un-inoculated Mueller Hinton Broth (MHB) was used as negative control. Tests were carried out in duplicate on at least three different days. […] For comparison standard peptide antibiotics vancomycin (VAN) and polymyxin B (PMB) were also assayed under identical conditions (Table 2). […] Further, antibacterial activity of active peptidomimetics 1c and 1d were also evaluated against MRSA in presence of 25% v/v human serum as well as bovine serum.

[2] = test system: MRSA (ATCC 33591) biofilm; experiment: 24 h preformed mature biofilm (alamar blue, crystal violet); assay type: cell-based, Staphylococcus aureus; details: 20×MICb: 1c 140 μg/mL, 1d 70 μg/mL, VAN 20 μg/mL
Experimental: (§3) To evaluate potential of designed active peptidomimetics against MRSA biofilms a methodology as used previously was employed with minor modifications [Antimicrob. Agents Chemother., 57:2726-2737, 2013]. Briefly, freshly inoculated MRSA (ATCC 33591) was grown in biofilm growth media (TSB supplemented with 0.5% w/v NaCl and 0.25% w/v glucose) overnight. Next day, the culture was diluted in fresh biofilm growth media to 10^5 CFU/mL. 200 μl of diluted culture was dispensed in wells of a 96-well polystyrene plate for biofilm formation. […] Biofilm cultures were re-incubated at 37° C. for 24 h. After removal of medium, the biofilms were further washed twice with sterile NaCl/Pi buffer and assessed for metabolic activity (alamar blue assay) and biomass quantification (Crystal violet assay).

[3] = test system: S. aureus (ATCC 33591); experiment: Resistance development study, serial passage at sub MIC; assay type: cell-based, Staphylococcus aureus; details: 17 serial passages at sub MIC
Experimental: FIG. 5: Illustration of resistance development study in S. aureus (ATCC 33591) after 17 serial passages with sub MIC of 1c/1d or antibiotic treatment. The fold change in MIC is the ratio of the MIC after 17 passages relative to that MIC observed before first passage.
To determine potential of active peptidomimetics against resistance development, in vitro serial passage method at sub inhibitory concentration was done. Briefly, bacterial suspension (100 μL) from duplicate wells at the concentration of sub-MIC was used to inoculate fresh culture. The culture was grown to obtain approximately 10^5 CFU/mL for the next experiment. These bacterial suspensions were then incubated with desired concentration of antibacterial agents for 18 h to determine new MIC. The same sub culturing protocol was used for next 16 passages and MIC was determined using OD630 nm as described previously in the text [Chem. Biol., 20:1286-1295, 2013.]

[4] = test system: S. aureus (ATCC 29213); experiment: MIC, serial broth dilution; assay type: cell-based, Staphylococcus aureus; details: MHB, 18 h, 37° C.
Experimental: as §1, §2

[5] = test system: methicillin resistant S. aureus (ATCC 33591); experiment: MIC, serial broth dilution; assay type: cell-based, Staphylococcus aureus; details: MHB, 18 h, 37° C.
Experimental: as §1, §2

[6] = test system: MRSA (ATCC 33591) biofilm; experiment: Inhibition of biofilm formation (alamar blue, crystal violet); assay type: cell-based, Staphylococcus aureus; details: sub-MICb; for reduction in metabolic activity (alamar blue), biofilm formation: printed as 'reduction up to'
Experimental: as §3

[7] = test system: MRSA; experiment: MIC in presence of 25% v/v human serum; assay type: cell-based, Staphylococcus aureus
Experimental: Following bacterial strains were used in this study: S. aureus (ATCC 29213), methicillin resistant S. aureus (ATCC 33591), Staphylococcus epidermidis (ATCC 12228), methicillin resistant Staphylococcus epidermidis(ATCC 51625), Enterococcus faecalis (ATCC 7080), Escherichia coli (ATCC 11775), and Acinetobacter baumannii (ATCC 19606). Antibacterial activity was evaluated using a modified serial broth dilution method in accordance with Clinical Laboratory Standard Institute guidelines [Methods for dilution antimicrobial susceptibility tests for bacteria that grow aerobically-7th ed. Approved standard M7-A7. Clinical and Laboratory Standards Institute, Wayne, Pa., Biochim. Biophys. Acta 1798:1864-1875, 2010.]. Briefly, the inoculums were prepared from mid-log phase bacterial cultures. Peptidomimetics were incubated with bacterial suspension in Muller Hinton broth media (10^5 CFU/mL) in 96 well microtitre plate. The plates were incubated overnight with agitation (200 rpm) at 37° C. After 18 h, absorbance was measured at 630 nm. Cultures without test peptidomimetics were used as positive control. Un-inoculated Mueller Hinton Broth (MHB) was used as negative control. Tests were carried out in duplicate on at least three different days. […] Further, antibacterial activity of active peptidomimetics 1c and 1d were also evaluated against MRSA in presence of 25% v/v human serum as well as bovine serum.

[8] = test system: human red blood cells (hRBC); experiment: Hemolytic activity; assay type: cell-based; details: 250 μg/mL, 1 h at 37° C.
Experimental: Hemolytic activity of the peptidomimetics was evaluated on human red blood cells (hRBC) as described previously with minor modifications [FEBS J, 273:4040-4054, 2006; Biochim Biophys Acta., 1798:1864-1875, 2010]. Briefly, 100 μL of fresh hRBC suspension 4% v/v in NaCl/Pi (35 mM phosphate buffer, 150 mM NaCl, pH 7.2) was placed in a 96-well plate. After incubation of the peptidomimetics (100 μL) in the hRBC suspension for 1 h at 37° C., the plates were centrifuged and supernatant (100 μL) was transferred to fresh 96-well plate. Absorbance was read at 540 nm using ELISA plate reader (Molecular Devices). Percent hemolysis was calculated using the following formula: % hemolysis=100[(A−A0)/(At−A0)]
Where, A represents absorbance of sample wells at 540 nm. Also A0 and At represents 0% and 100% hemolysis determined in NaCl/Pi and 1% Triton X-100, respectively (Table 2). […] Peptidomimetics 1e and 1f caused 31% and 30% hemolysis at 250 μg/mL. Peptidomimetics 2d, 2e and 2f caused significant hemolysis with 83%, 96% and 88% damage to hRBCs at […] respectively.

Compound	MIC E. coli. (ATCC 11775) [1]	biomass remaining compared to control, 24 h pre-formed biofilm (crystal violet) [2] [%]	increase in MIC after 17 passages [3] [fold]	MIC S. aureus (ATCC 29213) [4] [µg/mL]	MIC MRSA (ATCC 33591) [5] [µg/mL]	% biomass reduction (crystal violet), biofilm formation [6] [%]	reduction in metabolic activity (alamar blue), biofilm formation [6] [%]	increase in MIC in human serum [7] [fold]	% H, percentage hemolysis of human RBCs [8] [%]
NCCCNCCCCNCCCNC(=O)C(Cc1c[nH]c2ccccc12)NC(=O)C(Cc1c[nH]c2ccccc12)NC(=O)Cc1ccc(C(F)(F)F)cc1 (stereo not drawn) [1c]	56.8	24.0±13.4	4	0.0017 (≈ 0.00223 µM)	3.5 (≈ 4.6 µM)	19.8±5.6	33.1±5.7	4	2
CCCCCCCCCC(=O)NC(Cc1c[nH]c2ccccc12)C(=O)NC(Cc1c[nH]c2ccccc12)C(=O)NCCCNCCCCNCCCN (stereo not drawn) [1d]	14.2	21.4±9.2	2	0.0017 (≈ 0.00233 µM)	1.7 (≈ 2.33 µM)	28.2±11.1	26.4±3.3	8	9
